From paper PMC10041525, “New Dual Inhibitors of Bacterial Topoisomerases with Broad-Spectrum Antibacterial Activity and In Vivo Efficacy against Vancomycin-Intermediate Staphylococcus aureus” (Journal of Medicinal Chemistry, 2023)
Like-named read-outs stand apart in the source and are kept apart here.

Assays:
DNA gyrase from E. coli = target: T1, DNA gyrase from E. coli (Escherichia coli, UniProt P0AES6); assay: supercoiling HTS plate assay; format: biochemical
T1 construct: purchased Inspiralis
Method in brief: (§1)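 E. coli gyrase tested by supercoiling and topo IV by relaxation in high-throughput plate format. IC50 from seven inhibitor concentrations; mean of three independent measurements.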

S. aureus ATCC 29213 = assay: MIC broth microdilution (CLSI); format: cell-based
Method in brief: (§2)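 Cation-adjusted Mueller Hinton broth 2 microdilution, 5 × 10^4 cells per well in 100 μL, three parallel replicates, plates bagged to limit evaporation; growth read as OD600 after incubation.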

[1] = system: Enterococcus faecalis ATCC 29212; assay: MIC broth microdilution (CLSI); format: cell-based, E. faecalis; settings: Enterococcus faecalis, ATCC29212
[2] = system: S. aureus (VISA) ATCC 700699; assay: MIC broth microdilution (CLSI); format: cell-based
Method in brief: (§3)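 Compounds were serially diluted in cation-adjusted Mueller Hinton broth 2 according to CLSI guidance, and each well received 5 × 10^4 cells. After 18 h at 37 °C and 150 rpm, absorbance at 600 nm defined the MIC as a triplicate-mean increment below 1.5-fold background.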

E. faecium ATCC 700221 = assay: MIC broth microdilution (CLSI); format: cell-based
K. pneumoniae ATCC 10031 = assay: MIC broth microdilution (CLSI); format: cell-based; settings: Klebsiella pneumoniae, ATCC10031
Method in brief: as §3

P. aeruginosa ATCC 27853 = assay: MIC broth microdilution (CLSI); format: cell-based; settings: Pseudomonas aeruginosa, ATCC27853
Method in brief: as §3

[3] = system: S. aureus (MRSA) ATCC 43300; assay: MIC broth microdilution (CLSI); format: cell-based
Method in brief: as §3

E. coli ATCC 25922 = assay: MIC broth microdilution (CLSI); format: cell-based; settings: Escherichia coli, ATCC25922
Method in brief: as §3

[4] = system: Enterobacter cloacae spp. cloacae ATCC 13047; assay: MIC broth microdilution (CLSI); format: cell-based; settings: Enterobacter cloacae, ATCC13047
Method in brief: as §3

topo IV from E. coli = target: T2, topo IV from E. coli (Escherichia coli, UniProt P20083); assay: relaxation HTS plate assay; format: biochemical
T2 construct: purchased Inspiralis
Method in brief: as §1

A. baumannii ATCC 17978 = assay: MIC broth microdilution (CLSI); format: cell-based; settings: Acinetobacter baumannii, ATCC17978
Method in brief: as §2

[5] = Staphylococcus aureus, ATCC29213
[6] = Enterococcus faecium, ATCC700221
[7] = Staphylococcus aureus, read-out: MIC [µg/mL](S. aureus MRSA ATCC4330)
[8] = read-out: MIC [µg/mL] (A. baumannii ATCC 17978)
[9] = Staphylococcus aureus, ATCC29213; read-out: MIC
[10] = Staphylococcus aureus, ATCC29213; read-out: MIC [µg/mL](S. aureus ATCC 29213)
[11] = Staphylococcus aureus, read-out: MIC
[12] = Enterococcus faecium, ATCC700221, read-out: MIC
[13] = Staphylococcus aureus; read-out: MIC
[14] = Staphylococcus aureus; read-out: MIC [µg/mL](S. aureus MRSA ATCC4330)

T2 sequence (P0AFI2 whole entry): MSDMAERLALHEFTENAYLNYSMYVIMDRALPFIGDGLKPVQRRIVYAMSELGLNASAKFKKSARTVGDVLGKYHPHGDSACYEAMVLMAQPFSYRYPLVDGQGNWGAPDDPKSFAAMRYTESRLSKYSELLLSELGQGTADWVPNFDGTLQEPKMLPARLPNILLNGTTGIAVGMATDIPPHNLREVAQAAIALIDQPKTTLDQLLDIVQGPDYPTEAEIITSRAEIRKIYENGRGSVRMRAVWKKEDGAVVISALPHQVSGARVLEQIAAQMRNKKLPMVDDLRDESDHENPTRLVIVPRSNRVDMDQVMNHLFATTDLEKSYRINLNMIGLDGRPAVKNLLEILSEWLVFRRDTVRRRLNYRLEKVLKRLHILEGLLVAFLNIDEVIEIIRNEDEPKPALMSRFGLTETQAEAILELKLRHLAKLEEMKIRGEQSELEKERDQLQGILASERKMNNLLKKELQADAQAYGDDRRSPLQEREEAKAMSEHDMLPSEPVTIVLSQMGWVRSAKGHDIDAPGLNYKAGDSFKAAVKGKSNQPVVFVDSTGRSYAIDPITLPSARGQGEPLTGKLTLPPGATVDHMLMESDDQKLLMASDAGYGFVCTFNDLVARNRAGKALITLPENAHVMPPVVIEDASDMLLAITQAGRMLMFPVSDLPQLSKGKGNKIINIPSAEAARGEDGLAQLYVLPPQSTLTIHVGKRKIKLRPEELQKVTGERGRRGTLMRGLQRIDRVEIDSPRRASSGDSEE
T2 sequence (P20083 whole entry): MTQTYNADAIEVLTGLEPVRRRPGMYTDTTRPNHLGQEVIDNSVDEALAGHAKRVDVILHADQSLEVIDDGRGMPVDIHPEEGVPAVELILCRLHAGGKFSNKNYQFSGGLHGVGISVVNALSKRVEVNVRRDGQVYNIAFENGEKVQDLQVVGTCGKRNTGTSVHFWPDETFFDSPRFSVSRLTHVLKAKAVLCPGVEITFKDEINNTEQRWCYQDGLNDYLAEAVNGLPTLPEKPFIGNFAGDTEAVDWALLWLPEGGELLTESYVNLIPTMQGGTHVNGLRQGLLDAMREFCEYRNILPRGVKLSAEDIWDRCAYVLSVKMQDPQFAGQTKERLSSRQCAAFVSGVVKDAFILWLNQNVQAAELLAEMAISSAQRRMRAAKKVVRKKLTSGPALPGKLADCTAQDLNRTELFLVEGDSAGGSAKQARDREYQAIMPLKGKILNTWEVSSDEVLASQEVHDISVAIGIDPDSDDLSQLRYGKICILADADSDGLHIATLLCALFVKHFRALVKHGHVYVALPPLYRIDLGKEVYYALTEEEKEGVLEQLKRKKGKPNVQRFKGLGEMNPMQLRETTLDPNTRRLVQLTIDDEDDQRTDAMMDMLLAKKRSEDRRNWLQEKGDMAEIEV

Row | Structure (SMILES) | IC50 (DNA gyrase from E. coli; read-out: IC50) [nM] | IC50 (topo IV from E. coli; read-out: IC50) [nM] | MIC (A. baumannii ATCC 17978; read-out: MIC) [µg/mL] | MIC (A. baumannii ATCC 17978; [8]) [µg/mL] | MIC (S. aureus ATCC 29213; [9]) [µg/mL] | MIC (S. aureus ATCC 29213; [10]) [µg/mL] | MIC ([1]; read-out: MIC) [µg/mL] | MIC [2, 11] [µg/mL] | MIC (E. faecium ATCC 700221; [12]) [µg/mL] | MIC (K. pneumoniae ATCC 10031; read-out: MIC) [µg/mL] | MIC (P. aeruginosa ATCC 27853; read-out: MIC) [µg/mL] | MIC [3, 13] [µg/mL] | MIC [3, 14] [µg/mL] | MIC (E. coli ATCC 25922; read-out: MIC) [µg/mL] | MIC ([4]; read-out: MIC) [µg/mL] | IC50 (DNA gyrase from E. coli; IC50 [nM] E. coli DNA gyrase) [nM] | further results
1 | Cc1[nH]c(C(=O)Nc2nc3c(N4CCOCC4)cc(C(=O)O)cc3s2)c(Cl)c1Cl [7a, 2-(3,4-Dichloro-5-methyl-1H-pyrrole-2-carboxamido)-4-morpholinobenzo[d]thiazole-6-carboxylic Acid] | < 10 | – | – | – | – | – | – | – | – | – | – | – | – | – | – | – | MIC (S. aureus ATCC 29213; [5]): 0.25 µg/mL; MIC (S. aureus ATCC 29213; Staphylococcus aureus, ATCC29213, read-out: MIC [µg/mL](S. aureus ATCC 29213)): 0.25 µg/mL; MIC [1]: < 0.0312 µg/mL; MIC [2]: <0.03125 µg/mL; MIC ([2]; Staphylococcus aureus): < 0.0312 µg/mL; MIC (E. faecium ATCC 700221; [6]): < 0.0312 µg/mL; MIC (K. pneumoniae ATCC 10031): 0.5 µg/mL; MIC (P. aeruginosa ATCC 27853): 16 µg/mL; MIC ([3]; Staphylococcus aureus): 0.0625 µg/mL; MIC [3, 7]: 0.25 µg/mL; MIC (E. coli ATCC 25922): 8 µg/mL; MIC [4]: > 64 µg/mL
2 | Cc1[nH]c(C(=O)Nc2nc3c(N4CCOCC4C)cc(C(=O)O)cc3s2)c(Cl)c1Cl (stereo not shown) [7b, 2-(3,4-Dichloro-5-methyl-1H-pyrrole-2-carboxamido)-4-(3-methylmorpholino)benzo[d]thiazole-6-carboxylic Acid] | < 10 | 78 ± 4 | 4 | 4 | 0.125 | 0.125 | < 0.0312 | < 0.0312 | < 0.0312 | 2 | 8 | < 0.0312 | < 0.0312 | 8 | 32 | – | –
3 | Cc1[nH]c(C(=O)Nc2nc3c(N4CCOC[C@H]4C)cc(C(=O)O)cc3s2)c(Cl)c1Cl [7c, (R)-2-(3,4-Dichloro-5-methyl-1H-pyrrole-2-carboxamido)-4-(3-methylmorpholino)benzo[d]thiazole-6-carboxylic Acid] | 17 ± 8 | 60 ± 36 | 8 | 8 | 0.0625 | 0.0625 | < 0.0312 | 0.0625 | < 0.0312 | 1 | 8 | 0.125 | 0.125 | 8 | > 64 | 30 ± 9 | –
4 | Cc1[nH]c(C(=O)Nc2nc3c(N4CCOC[C@@H]4C)cc(C(=O)O)cc3s2)c(Cl)c1Cl [7d, (S)-2-(3,4-Dichloro-5-methyl-1H-pyrrole-2-carboxamido)-4-(3-methylmorpholino)benzo[d]thiazole-6-carboxylic Acid] | – | 95 ± 4 | 8 | 8 | 0.125 | 0.125 | < 0.0312 | 0.0625 | < 0.0312 | 2 | 8 | 0.125 | 0.125 | 8 | > 64 | 23 | IC50 (DNA gyrase from E. coli; IC50): 18 ± 7 nM
5 | Cc1[nH]c(C(=O)Nc2nc3c(N4CCOC(C)C4)cc(C(=O)O)cc3s2)c(Cl)c1Cl (stereo not shown) [7e, 2-(3,4-Dichloro-5-methyl-1H-pyrrole-2-carboxamido)-4-(2-methylmorpholino)benzo[d]thiazole-6-carboxylic Acid] | < 10 | 91 ± 3 | 8 | 8 | 0.0625 | 0.0625 | < 0.0312 | < 0.0312 | < 0.0312 | 2 | 16 | 0.0625 | 0.0625 | 8 | > 64 | – | –
6 | Cc1[nH]c(C(=O)Nc2nc3c(N4CC(C)OC(C)C4)cc(C(=O)O)cc3s2)c(Cl)c1Cl (stereo not shown) [7f, 2-(3,4-Dichloro-5-methyl-1H-pyrrole-2-carboxamido)-4-(2,6-dimethylmorpholino)benzo[d]thiazole-6-carboxylic Acid] | < 10 | 82 ± 29 | 1 | 1 | < 0.0312 | < 0.0312 | < 0.0312 | < 0.0312 | < 0.0312 | 8 | 8 | < 0.0312 | < 0.0312 | 8 | > 64 | – | –
7 | Cc1[nH]c(C(=O)Nc2nc3c(N4C[C@H]5CC[C@@H](C4)O5)cc(C(=O)O)cc3s2)c(Cl)c1Cl [7g, 4-((1R,5S)-8-Oxa-3-azabicyclo[3.2.1]octan-3-yl)-2-(3,4-dichloro-5-methyl-1H-pyrrole-2-carboxamido)benzo[d]thiazole-6-carboxylic Acid] | < 10 | 16 ± 8 | 1 | 1 | < 0.0312 | < 0.0312 | < 0.0312 | < 0.0312 | < 0.0312 | 2 | 2 | < 0.0312 | < 0.0312 | 2 | 16 | – | –
8 | Cc1[nH]c(C(=O)Nc2nc3c(N4[C@@H]5CC[C@H]4COC5)cc(C(=O)O)cc3s2)c(Cl)c1Cl [7h, 4-((1R,5S)-3-Oxa-8-azabicyclo[3.2.1]octan-8-yl)-2-(3,4-dichloro-5-methyl-1H-pyrrole-2-carboxamido)benzo[d]thiazole-6-carboxylic Acid] | 13 ± 1 | – | 2 | 2 | < 0.0312 | < 0.0312 | < 0.0312 | 0.0625 | < 0.0312 | 2 | 4 | < 0.0312 | < 0.0312 | 4 | 16 | 16 ± 6 | –
9 | Cc1[nH]c(C(=O)Nc2nc3c(N4CCOC(C(F)(F)F)C4)cc(C(=O)O)cc3s2)c(Cl)c1Cl (stereo not shown) [7i, 2-(3,4-Dichloro-5-methyl-1H-pyrrole-2-carboxamido)-4-(2-(trifluoromethyl)morpholino)benzo[d]thiazole-6-carboxylic Acid] | < 10 | – | – | – | – | – | – | – | – | – | – | – | – | – | – | – | IC50 (topo IV from E. coli; IC50): 63 ± 1 nM; MIC (A. baumannii ATCC 17978): 4 µg/mL; MIC (S. aureus ATCC 29213; [5]): < 0.0312 µg/mL; MIC [1]: < 0.0312 µg/mL; MIC ([2]; Staphylococcus aureus): < 0.0312 µg/mL; MIC (E. faecium ATCC 700221; [6]): < 0.0312 µg/mL; MIC (K. pneumoniae ATCC 10031): 4 µg/mL; MIC (P. aeruginosa ATCC 27853): 4 µg/mL; MIC ([3]; Staphylococcus aureus): < 0.0312 µg/mL; MIC [3, 7]: < 0.0312 µg/mL; MIC (E. coli ATCC 25922): 16 µg/mL; MIC [4]: > 64 µg/mL
10 | COCC1CCCN1c1cc(C(=O)O)cc2sc(NC(=O)c3[nH]c(C)c(Cl)c3Cl)nc12 (stereo not shown) [7n, 2-(3,4-Dichloro-5-methyl-1H-pyrrole-2-carboxamido)-4-(2-(methoxymethyl)pyrrolidin-1-yl)benzo[d]thiazole-6-carboxylic Acid] | – | 210 ± 7 | 8 | 8 | 0.0625 | 0.0625 | < 0.0312 | 0.0625 | < 0.0312 | 8 | 8 | 0.0625 | 0.0625 | 8 | > 64 | 14 ± 6 | –
11 | COC[C@@H]1CCCN1c1cc(C(=O)O)cc2sc(NC(=O)c3[nH]c(C)c(Cl)c3Cl)nc12 [7o, (S)-2-(3,4-Dichloro-5-methyl-1H-pyrrole-2-carboxamido)-4-(2-(methoxymethyl)pyrrolidin-1-yl)benzo[d]thiazole-6-carboxylic Acid] | – | 280 ± 14 | 16 | 16 | 0.0625 | 0.0625 | < 0.0312 | 0.0625 | < 0.0312 | 16 | 16 | 0.0625 | 0.0625 | 16 | > 64 | 25 | –
12 | Cc1[nH]c(C(=O)Nc2nc3c(N4CCOCC4)cc(C(=O)O)cc3s2)cc1F [16b, 2-(4-Fluoro-5-methyl-1H-pyrrole-2-carboxamido)-4-morpholinobenzo[d]thiazole-6-carboxylic Acid] | – | 120 | – | > 64 | 64 | 64 | 16 | 8 | 2 | – | – | 32 | 32 | > 64 | – | 31 ± 6 | MIC (E. faecium ATCC 700221): 2 µg/mL
